The test has as its system voltage-gated sodium ion (NaV) channels in pituitary GH3 cells. Put plainly: Whole-cell INa(T) decay during a 1-s, 20-Hz train of depolarizing pulses in GH3 cells. As to conditions: control 65 ± 4 ms, n = 7. Format: cell-based, rat. Here is the method: Shortly before experiments, GH3 was carefully suspended in normal Tyrode’s solution at room temperature (20–25 °C). A few drops of the suspension containing cell clumps were immediately added to a custom-built chamber on the stage of an inverted Diaphot-200 microscope (Nikon, Tokyo, Japan). Pipettes were pulled from Kimax-51 soft-glass capillaries (#34500-99; Kimble, Vineland, NJ) by using a Narishige PP-830 Vertical Puller (Tokyo, Japan), and their tips were fire-polished using a microforge (MF-83, Narishige). During the measurements, an electrode with a tip resistance of 2–4 MΩ, which was tightly inserted into a holder, was maneuvered using a WR-98 micromanipulator (Narishige). Patch-clamp experiments were performed in the voltage-clamp mode with either cell-attached or whole-cell configuration (rupturing of the membrane patch after GΩ formation) by using a RK-400 Patch-Clamp Amplifier (Bio-Logic, Claix, France) connected to a laptop. Shortly before GΩ formation, potential correction was performed for a liquid junction potential, which developed at the electrode’s tip because of the difference in the compositions of the internal and bath solutions.
SAF is efficacious as an add-on therapy following subthalamic nucleus deep brain stimulation in patients with Parkinson’s disease. Therefore, we investigated whether SAF could modify the inactivation of currents induced by a train of depolarizing stimuli. The test cells were maintained at −80 mV and subjected to repetitive depolarization to −10 mV (40 ms per pulse; rate of 20 Hz; duration of 1 s). Similar to the findings of relevant studies, during the control period (the absence of SAF), INa(T) inactivation was noticed to be induced by 1 s of repetitive depolarization stimuli (−80 to −10 mV) with a decaying time constant of 65 ± 4 ms (n = 7; Fig. 6A, 6B and 6C). […] In the presence of 3 and 10 μM SAF, the exponential time course of INa(T) induced by the same train of depolarizing pulses was longer at 107 ± 5 ms (n = 7, P < 0.05) and 124 ± 6 ms (n = 7, P < 0.05), respectively. Furthermore, as MGB and ranolazine have been reported to suppress the amplitude of INa effectively, we added ranolazine (Ran; 10 μM) and mirogabalin (MGB; 10 μM) separately in the presence of 10 μM SAF. […] The application of Ran (10 μM) or MGB (10 μM) alone decreased the decaying time constant of INa(T) during the same train of depolarizing pulses to 39 ± 4 ms (n = 7, P < 0.05) or 42 ± 4 ms (n = 7, P < 0.05), respectively, from a control value of 66 ± 5 ms (n = 7). Thus, in addition to increasing the magnitude of INa(T), SAF prominently affects the decaying of INa(T) subjected to a 1-s train of depolarizing pulses.
Fig. 6 Effect of SAF on INa(T) decay induced by a train of depolarizing pulses in GH3 cells. The train of pulses comprised twenty 40-ms pulses (voltage increased to −10 mV) with 10-ms intervals at −80 mV for a total duration of 1 s. (A) Current traces during the control period (a, blue) and during exposure to 10 μM SAF (b, red). The voltage-clamp protocol used is indicated atop the current traces. In panel A, the third graphs (blue and red) from the top are the expanded forms of the second graphs (brown dashed boxes). (B) The relative amplitude of INa(T) versus pulse train duration in the absence (blue open circles) and presence (red open squares) of 10 μM SAF (mean ± standard error of the mean; n = 7 for each point). The INa(T) amplitudes were normalized by dividing the current amplitudes at the end of each pulse-train stimulation by those obtained at the beginning of the pulse train stimulation. The gray continuous lines on which the data points are overlaid are reliably fitted with a single exponential.

On to `C[C@H](NCc1ccc(OCc2cccc(F)c2)cc1)C(N)=O` [SAF, (S)-2-((4-((3-fluorobenzyl)oxy)benzyl)amino)propanamide], for which the “decaying time constant of INa(T) during train of depolarizing pulses” value was determined as 107 ± 5 ms (3 μM SAF) and 124 ± 6 ms (10 μM SAF).
